Test results as given in patent US7579018B2, “Microbiological control in aqueous systems” (Albemarle Corporation, priority 2000, dated 2009).

How the values were obtained:
[1] = test system: planktonic bacteria; assay: Cooling tower field test with floater dispenser, Example 5: planktonic plate counts; conditions: substantially continuous dosing from floater, 0.15 to 0.2 ppm of free halogen as Br2
Procedure: Another field test was carried out in the cooling tower described in Example 2 above. In this field test the cooling tower water was substantially continuously dosed with DBDMH using a Rainbow Lifeguard swimming pool floater having a capacity of about 3 lbs of granules, with the slots in the wide open position. This floater, charged with DBDMH granules, was placed and secured in the tower basin, a very convenient location for addition of the biocide when needed. The floater delivered a dose of “free halogen” to maintain a dosage level in the range of 0.15 to 0.2 ppm of free halogen as Br2.
The granules of DBDMH used in Examples 2-5 have an average size in the range of about 40 U.S. standard mesh size to about ⅜-inch, and an average crush strength of at least 15 pounds per inch of thickness. The combination of the low water solubility of DBDMH coupled with its use in granular form provided a slow but continuous or substantially continuous automatic dosing of the cooling tower water so that a biocidally effective level of free bromine was maintained in the water during the entire test, with relatively infrequent refilling of the dispenser being required.

[2] = test system: aerobic bacteria; assay: Cooling tower field trial of 51 days, Example 3: bacteria levels
Text: Using the same cooling tower as used in Example 2, the effectiveness of 1,3-dibromo-5,5-dimethylhydantoin in microbiological control in cooling tower water was investigated. As noted above, the cooling tower consisted of two 500-ton units in a crossflow design. The total system-contained volume was 14,000 gallons, and the tower contained medium efficiency film fill. Water from the tower cooled the coils of two 300-ton air conditioners (chillers). The tower typically operated at a pH of about 9.1 and 4 cycles of concentration. Blowdown was controlled by conductivity. Make-up water consisted of softened city water and which was of good quality. The make-up water was very low in calcium (<10 mg/L) but high in pH (8.7). The alkalinity was 145 mg/L (as CaCO3), and the silica level was 28 mg/L. The tower employed a conventional polyphosphate/molybdate/phosphonate program to provide corrosion and deposit control.
The 1,3-dibromo-5,5-dimethylhydantoin was introduced to the water using granules charged to a solid halogen feeder (Neptune model BT-40, Neptune Chemical Pump Co., Inc., Lansdale, Pa.). The field trial lasted 51 days. The tower was slug dosed three times a week with 1,3-dibromo-5,5-dimethylhydantoin. Slug dosing was accomplished by diverting a sidestream of the recirculating water through the feeder containing the granules for about 1 to 5 hours until a total halogen residual of about 0.75 mg/L (as Cl2) was obtained. This biocide program reduced bacterial levels in the bulk water by an average of 2 orders of magnitude, with bacteria levels in the bulk water after the biocide dose ranging from 10^1 to 10^3 CFUs/mL.
The results from the average of several analyses conducted during the course of this field trial using DBDMH were as follows: In the microbiological tests, the levels of aerobic bacteria were in the range of 6×10^0 to 3×10^3 CFUs/mL in the cooling tower water and 10^0 in the make-up water. […]

[3] = Iodometric titration of clear saturated stock solutions; assay type: physicochemical; conditions: 1 gram powder slurried in 100 mL deionized water, stirred 20 minutes, filtered
Procedure: Stock solutions of DBDMH and of BCDMH were prepared by slurrying 1 gram of the respective powders in 100 mL of deionized water. After stirring for 20 minutes, the insolubles were filtered to yield clear saturated stock solutions of DBDMH and BCDMH, respectively. Iodometric titration of the stock solutions using the potassium iodide-sodium thiosulfate method indicated the DBDMH solution contained 580 mg/L (as total chlorine), and the BCDMH solution contained 1100 mg/L (as total chlorine).

CC1(C)C(=O)N(Br)C(=O)N1Br [DBDMH, 1,3-dibromo-5,5-dimethylhydantoin]
planktonic plate counts [1]: less than 10^4 CFU/mL | levels of aerobic bacteria ([2]; in the cooling tower water, several analyses during field trial): 6×10^0 to 3×10^3 CFUs/mL | bacteria levels in the bulk water after the biocide dose ([2]; slug dosed three times a week to total halogen residual about 0.75 mg/L (as Cl2)): 10^1 to 10^3 CFUs/mL | average reduction of bacterial levels in the bulk water ([2]; slug dosed three times a week to total halogen residual about 0.75 mg/L (as Cl2), 51 days): 2 orders of magnitude | halogen content of saturated stock solution (as total chlorine) [3]: 580 mg/L
